Reference: paper PMC2782911 (Cancer, 2009)
Where two headings read alike, the source gives them in different places.

How the values were obtained:
[1] = target: recombinant human HDAC3 (Homo sapiens, UniProt O15379); assay: Recombinant human HDAC3 activity assay; assay type: biochemical; conditions: for inhibition of HDAC3: 1 mM, recombinant human isoform
[2] = target: recombinant human HDAC2 (Homo sapiens, UniProt Q92769); assay: Recombinant human HDAC2 activity assay; assay type: biochemical; conditions: 1 mM, recombinant human isoform
Chain of recombinant human HDAC2 (Q92769 whole entry, canonical isoform): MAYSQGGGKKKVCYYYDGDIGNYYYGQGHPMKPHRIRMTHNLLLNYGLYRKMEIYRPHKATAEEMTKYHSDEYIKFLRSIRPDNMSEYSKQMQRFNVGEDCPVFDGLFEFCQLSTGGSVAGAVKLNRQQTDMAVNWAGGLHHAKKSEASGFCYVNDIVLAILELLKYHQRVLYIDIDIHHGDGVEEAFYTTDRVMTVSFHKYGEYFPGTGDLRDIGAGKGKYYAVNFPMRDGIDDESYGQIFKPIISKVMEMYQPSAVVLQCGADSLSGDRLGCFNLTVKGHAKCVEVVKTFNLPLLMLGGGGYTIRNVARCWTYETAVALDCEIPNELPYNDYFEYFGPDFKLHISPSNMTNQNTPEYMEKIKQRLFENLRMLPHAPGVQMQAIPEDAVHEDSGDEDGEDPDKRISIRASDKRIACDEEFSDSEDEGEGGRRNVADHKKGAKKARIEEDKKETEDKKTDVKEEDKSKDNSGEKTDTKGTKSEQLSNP

[3] = target: T1, recombinant human HDAC8 (Homo sapiens, UniProt Q9BY41); assay: Recombinant human HDAC8 activity assay; assay type: biochemical; conditions: 1 mM, recombinant human isoform
T1 sequence (Q9BY41 1-377): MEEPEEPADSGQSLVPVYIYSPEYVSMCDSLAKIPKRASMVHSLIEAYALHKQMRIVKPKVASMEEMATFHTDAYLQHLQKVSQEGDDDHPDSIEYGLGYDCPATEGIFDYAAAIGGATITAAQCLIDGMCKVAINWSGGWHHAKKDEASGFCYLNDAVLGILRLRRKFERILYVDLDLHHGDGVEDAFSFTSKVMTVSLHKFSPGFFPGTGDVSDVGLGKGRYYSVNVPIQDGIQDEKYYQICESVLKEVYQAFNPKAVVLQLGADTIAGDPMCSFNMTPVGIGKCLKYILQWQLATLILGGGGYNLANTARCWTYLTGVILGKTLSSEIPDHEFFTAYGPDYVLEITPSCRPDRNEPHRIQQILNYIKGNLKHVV

[4] = target: recombinant human HDAC1 (Homo sapiens, UniProt Q13547); assay: Recombinant human HDAC1 activity assay; assay type: biochemical; conditions: for inhibition of HDAC1: 1 mM, recombinant human isoform
Chain of recombinant human HDAC1 (Q13547 whole entry, canonical isoform): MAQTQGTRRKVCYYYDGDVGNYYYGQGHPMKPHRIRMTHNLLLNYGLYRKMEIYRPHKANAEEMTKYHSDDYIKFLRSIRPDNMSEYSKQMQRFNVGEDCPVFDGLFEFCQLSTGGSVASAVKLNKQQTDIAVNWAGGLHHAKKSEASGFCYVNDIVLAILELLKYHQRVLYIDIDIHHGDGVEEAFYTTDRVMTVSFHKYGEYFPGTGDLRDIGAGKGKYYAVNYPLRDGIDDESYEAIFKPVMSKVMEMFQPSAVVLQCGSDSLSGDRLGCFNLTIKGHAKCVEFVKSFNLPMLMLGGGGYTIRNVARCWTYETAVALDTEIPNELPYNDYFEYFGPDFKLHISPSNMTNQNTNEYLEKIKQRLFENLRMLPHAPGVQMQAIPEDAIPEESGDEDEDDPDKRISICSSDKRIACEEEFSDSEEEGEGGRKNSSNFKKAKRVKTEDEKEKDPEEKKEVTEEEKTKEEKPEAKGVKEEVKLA

[5] = target: T2, human SLC5A8 (Homo sapiens, UniProt Q8N695); assay: Inhibition of [14C]nicotinate uptake via human SLC5A8 expressed in HRPE cells; assay type: cell-based
T2 sequence (Q8N695 1-610): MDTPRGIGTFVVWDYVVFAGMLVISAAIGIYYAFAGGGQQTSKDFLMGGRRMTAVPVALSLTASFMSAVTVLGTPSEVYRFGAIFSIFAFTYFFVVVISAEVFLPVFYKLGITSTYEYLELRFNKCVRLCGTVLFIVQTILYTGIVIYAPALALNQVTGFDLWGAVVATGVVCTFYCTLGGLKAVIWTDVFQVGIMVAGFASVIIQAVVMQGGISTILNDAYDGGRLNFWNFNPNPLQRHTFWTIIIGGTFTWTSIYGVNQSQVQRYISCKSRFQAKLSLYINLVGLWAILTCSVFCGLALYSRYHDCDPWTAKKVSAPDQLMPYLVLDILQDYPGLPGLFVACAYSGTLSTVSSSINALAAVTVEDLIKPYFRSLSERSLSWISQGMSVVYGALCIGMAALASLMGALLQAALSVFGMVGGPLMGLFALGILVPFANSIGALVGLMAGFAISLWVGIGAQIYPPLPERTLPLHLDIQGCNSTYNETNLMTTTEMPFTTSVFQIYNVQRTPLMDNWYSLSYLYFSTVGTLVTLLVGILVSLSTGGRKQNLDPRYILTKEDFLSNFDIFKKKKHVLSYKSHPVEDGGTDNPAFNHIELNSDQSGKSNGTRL

[6] = target: recombinant human HDAC5 (Homo sapiens, UniProt Q9UQL6); assay: Recombinant human HDAC5 activity assay; assay type: biochemical; conditions: 1 mM, recombinant human isoform
Chain of recombinant human HDAC5 (Q9UQL6 whole entry, canonical isoform): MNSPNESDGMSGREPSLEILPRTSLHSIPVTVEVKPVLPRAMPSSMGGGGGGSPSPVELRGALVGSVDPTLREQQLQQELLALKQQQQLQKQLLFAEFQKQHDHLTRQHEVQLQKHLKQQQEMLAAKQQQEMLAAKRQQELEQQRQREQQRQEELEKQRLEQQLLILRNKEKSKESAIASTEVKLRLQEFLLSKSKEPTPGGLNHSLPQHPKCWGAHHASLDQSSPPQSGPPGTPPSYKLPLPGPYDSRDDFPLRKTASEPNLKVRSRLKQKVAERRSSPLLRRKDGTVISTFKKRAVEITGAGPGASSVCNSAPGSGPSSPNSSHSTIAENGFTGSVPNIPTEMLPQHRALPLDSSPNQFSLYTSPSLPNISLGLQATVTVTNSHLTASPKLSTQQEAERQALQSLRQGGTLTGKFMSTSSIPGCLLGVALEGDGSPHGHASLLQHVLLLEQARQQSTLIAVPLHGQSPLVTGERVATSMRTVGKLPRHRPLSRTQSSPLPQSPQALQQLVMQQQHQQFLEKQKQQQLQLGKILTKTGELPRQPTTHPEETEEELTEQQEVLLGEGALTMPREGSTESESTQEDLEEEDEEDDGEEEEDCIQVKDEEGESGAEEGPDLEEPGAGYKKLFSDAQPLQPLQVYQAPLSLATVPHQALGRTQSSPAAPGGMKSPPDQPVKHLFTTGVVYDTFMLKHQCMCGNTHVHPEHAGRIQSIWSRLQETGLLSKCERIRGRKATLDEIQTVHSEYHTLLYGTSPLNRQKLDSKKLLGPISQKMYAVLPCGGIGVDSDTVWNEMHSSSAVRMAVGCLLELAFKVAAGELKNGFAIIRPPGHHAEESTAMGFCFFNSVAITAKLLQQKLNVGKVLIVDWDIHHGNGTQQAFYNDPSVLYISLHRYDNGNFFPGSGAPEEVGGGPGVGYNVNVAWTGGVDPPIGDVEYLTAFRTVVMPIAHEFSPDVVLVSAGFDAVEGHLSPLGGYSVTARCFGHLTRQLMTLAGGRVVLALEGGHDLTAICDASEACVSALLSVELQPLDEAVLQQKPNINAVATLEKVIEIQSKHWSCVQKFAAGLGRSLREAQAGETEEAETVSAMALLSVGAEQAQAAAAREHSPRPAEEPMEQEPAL

[7] = test system: HDACs in MCF7 cells; assay: HDAC activity in lysates of MCF7 cells cultured with compound; conditions: vector-transfected MCF7 cells cultured with 1 mM compound
[8] = target: recombinant human HDAC9 (Homo sapiens, UniProt Q9UKV0); assay: Recombinant human HDAC9 activity assay; assay type: biochemical; conditions: 1 mM, recombinant human isoform
Chain of recombinant human HDAC9 (Q9UKV0 whole entry, canonical isoform): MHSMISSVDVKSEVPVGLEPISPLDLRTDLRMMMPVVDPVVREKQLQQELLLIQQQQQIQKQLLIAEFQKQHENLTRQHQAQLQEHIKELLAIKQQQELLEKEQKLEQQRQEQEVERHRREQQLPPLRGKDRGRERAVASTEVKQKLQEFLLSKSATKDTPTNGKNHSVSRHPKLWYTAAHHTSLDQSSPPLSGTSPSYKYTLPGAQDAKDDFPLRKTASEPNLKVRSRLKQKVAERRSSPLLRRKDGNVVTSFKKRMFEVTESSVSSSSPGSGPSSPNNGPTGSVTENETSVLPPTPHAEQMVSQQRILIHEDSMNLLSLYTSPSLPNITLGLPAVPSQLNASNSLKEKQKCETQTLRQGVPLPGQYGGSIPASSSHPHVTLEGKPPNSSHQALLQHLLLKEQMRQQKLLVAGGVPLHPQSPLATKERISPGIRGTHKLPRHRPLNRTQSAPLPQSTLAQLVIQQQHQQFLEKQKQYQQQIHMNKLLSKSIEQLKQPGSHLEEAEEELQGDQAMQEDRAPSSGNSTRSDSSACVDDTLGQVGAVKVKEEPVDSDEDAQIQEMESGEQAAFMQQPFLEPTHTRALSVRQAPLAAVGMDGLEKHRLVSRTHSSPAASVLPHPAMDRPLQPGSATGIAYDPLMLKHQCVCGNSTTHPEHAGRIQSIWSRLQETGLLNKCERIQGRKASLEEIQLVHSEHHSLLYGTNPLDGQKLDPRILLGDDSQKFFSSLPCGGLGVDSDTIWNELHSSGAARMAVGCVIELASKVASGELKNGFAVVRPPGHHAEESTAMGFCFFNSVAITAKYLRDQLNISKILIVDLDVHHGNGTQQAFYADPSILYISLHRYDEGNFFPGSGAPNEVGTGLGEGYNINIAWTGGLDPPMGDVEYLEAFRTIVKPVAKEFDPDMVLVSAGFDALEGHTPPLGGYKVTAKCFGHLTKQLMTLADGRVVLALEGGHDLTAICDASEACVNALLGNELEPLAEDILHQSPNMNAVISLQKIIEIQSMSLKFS

[9] = target: T3, recombinant human HDAC6 (Homo sapiens, UniProt Q9UBN7); assay: Recombinant human HDAC6 activity assay; assay type: biochemical; conditions: 1 mM, recombinant human isoform
T3 sequence (Q9UBN7 1-1215): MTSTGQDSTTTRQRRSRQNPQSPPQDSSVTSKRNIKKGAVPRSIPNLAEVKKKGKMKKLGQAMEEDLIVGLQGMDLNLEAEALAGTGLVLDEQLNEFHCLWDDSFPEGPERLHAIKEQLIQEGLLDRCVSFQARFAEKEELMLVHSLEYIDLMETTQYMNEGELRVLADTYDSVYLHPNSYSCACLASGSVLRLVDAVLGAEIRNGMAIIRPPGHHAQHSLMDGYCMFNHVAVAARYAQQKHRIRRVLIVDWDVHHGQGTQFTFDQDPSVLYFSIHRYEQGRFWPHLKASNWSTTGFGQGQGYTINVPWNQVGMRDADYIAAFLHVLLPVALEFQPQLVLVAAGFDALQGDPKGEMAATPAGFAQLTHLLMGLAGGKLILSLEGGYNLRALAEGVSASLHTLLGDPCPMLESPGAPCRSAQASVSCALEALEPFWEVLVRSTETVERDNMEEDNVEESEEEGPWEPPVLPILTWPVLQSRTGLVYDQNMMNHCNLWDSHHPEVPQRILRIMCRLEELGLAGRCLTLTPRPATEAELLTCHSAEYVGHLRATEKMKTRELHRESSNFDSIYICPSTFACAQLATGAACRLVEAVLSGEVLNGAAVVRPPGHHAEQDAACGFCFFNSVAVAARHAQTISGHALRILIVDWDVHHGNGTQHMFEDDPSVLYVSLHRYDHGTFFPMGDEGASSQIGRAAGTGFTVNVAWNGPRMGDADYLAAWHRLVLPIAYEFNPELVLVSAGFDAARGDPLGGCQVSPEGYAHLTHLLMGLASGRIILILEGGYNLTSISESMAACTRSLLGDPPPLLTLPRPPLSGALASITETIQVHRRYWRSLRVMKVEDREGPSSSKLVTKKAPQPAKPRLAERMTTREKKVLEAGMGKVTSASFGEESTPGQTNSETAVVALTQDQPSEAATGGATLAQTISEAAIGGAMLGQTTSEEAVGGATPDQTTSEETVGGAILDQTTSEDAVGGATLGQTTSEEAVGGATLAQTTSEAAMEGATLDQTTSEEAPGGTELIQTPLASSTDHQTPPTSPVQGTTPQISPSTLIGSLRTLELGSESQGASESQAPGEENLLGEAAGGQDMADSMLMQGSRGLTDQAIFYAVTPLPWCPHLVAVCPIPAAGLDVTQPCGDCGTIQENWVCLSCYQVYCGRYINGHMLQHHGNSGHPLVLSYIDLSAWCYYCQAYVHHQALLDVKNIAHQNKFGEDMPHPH

[10] = test system: MCF7 cells; assay: Colony formation assay in MCF7 cells; conditions: vector-transfected MCF7 cells, increasing concentrations, two weeks
[11] = target: T2, human SLC5A8; assay: Substrate-induced currents in X. laevis oocytes expressing human SLC5A8; assay type: cell-based; conditions: for inward currents in SLC5A8-expressing oocytes: 1 mM compound, in the presence of NaCl, not detectable in absence of Na+, -50 mV; for K0.5 (substrate concentration for half-maximal current): saturation kinetics of substrate-induced currents, human SLC5A8 oocytes
[12] = test system: MCF7 cells; assay: Apoptosis of MCF7 cells by FACS analysis
[13] = target: T4, rat Slc5a8 (Rattus norvegicus, UniProt D3Z9E5); assay: Inhibition of [14C]nicotinate uptake via rat Slc5a8 expressed in HRPE cells; assay type: cell-based; conditions: read-out: inhibition of nicotinate uptake
T4 sequence (D3Z9E5 1-611): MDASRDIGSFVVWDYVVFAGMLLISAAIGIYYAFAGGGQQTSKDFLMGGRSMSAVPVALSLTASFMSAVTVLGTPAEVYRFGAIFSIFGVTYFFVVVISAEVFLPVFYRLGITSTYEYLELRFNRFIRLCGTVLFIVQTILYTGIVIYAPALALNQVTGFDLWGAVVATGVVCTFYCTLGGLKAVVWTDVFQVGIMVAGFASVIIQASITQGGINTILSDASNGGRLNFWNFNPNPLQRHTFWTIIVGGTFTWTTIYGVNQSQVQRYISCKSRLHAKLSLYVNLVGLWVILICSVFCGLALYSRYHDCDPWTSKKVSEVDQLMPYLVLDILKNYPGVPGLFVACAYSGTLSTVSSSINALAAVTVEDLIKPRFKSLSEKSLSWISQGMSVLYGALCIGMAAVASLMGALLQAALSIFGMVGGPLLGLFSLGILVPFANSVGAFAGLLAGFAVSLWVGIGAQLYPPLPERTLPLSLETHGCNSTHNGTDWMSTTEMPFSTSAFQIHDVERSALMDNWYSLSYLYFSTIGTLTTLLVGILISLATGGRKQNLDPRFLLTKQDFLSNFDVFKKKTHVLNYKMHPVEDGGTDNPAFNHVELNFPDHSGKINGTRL

[14] = target: T5, mouse Slc5a8 (Mus musculus, UniProt Q8BYF6); assay: Inhibition of [14C]nicotinate uptake via mouse Slc5a8 expressed in HRPE cells; assay type: cell-based; conditions: read-out: inhibition of nicotinate uptake
T5 sequence (Q8BYF6 1-611): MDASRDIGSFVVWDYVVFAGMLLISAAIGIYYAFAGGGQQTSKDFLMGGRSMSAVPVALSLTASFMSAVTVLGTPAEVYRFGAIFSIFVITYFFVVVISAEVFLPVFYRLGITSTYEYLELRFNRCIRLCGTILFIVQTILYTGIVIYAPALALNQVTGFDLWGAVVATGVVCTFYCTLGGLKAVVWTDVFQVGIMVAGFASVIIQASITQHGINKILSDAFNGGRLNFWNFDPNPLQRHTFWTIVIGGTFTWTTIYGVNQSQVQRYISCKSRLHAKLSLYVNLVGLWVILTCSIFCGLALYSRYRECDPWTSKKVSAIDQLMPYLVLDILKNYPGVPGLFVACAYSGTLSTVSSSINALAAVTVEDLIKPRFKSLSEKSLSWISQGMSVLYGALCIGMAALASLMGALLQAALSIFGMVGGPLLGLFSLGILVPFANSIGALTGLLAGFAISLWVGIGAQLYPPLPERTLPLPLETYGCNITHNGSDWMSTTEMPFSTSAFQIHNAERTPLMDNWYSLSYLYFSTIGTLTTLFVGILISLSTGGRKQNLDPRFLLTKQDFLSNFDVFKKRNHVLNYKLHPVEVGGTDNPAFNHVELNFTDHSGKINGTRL

[15] = Na+-activation kinetics of 3-bromopyruvate-induced currents
[16] = MCF7 cells ectopically expressing SLC5A8, 1 mM
[17] = vector-transfected MCF7 cells, 1 mM

Chain of recombinant human HDAC3 (O15379 whole entry, canonical isoform): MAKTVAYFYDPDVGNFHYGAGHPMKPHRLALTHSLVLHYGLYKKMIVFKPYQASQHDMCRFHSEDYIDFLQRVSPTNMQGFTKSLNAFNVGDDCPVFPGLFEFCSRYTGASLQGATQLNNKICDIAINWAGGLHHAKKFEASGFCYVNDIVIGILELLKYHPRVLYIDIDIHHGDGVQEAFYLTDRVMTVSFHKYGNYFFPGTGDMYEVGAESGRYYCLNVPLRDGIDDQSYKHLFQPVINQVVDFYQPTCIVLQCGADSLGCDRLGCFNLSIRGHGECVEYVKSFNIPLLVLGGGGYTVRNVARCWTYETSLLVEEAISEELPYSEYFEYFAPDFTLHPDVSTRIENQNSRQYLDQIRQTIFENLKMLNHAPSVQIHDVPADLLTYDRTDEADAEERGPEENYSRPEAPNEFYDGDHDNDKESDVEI
Chain of recombinant human HDAC3 (Q9Y618 395-489 partner limits assumed): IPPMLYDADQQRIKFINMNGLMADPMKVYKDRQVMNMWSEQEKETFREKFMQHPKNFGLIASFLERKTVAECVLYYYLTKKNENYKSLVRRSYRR

O=C(O)C(=O)CBr [3-bromopyruvate]
inhibition of HDAC3 [1]: marked inhibition | inhibition of HDAC2 [2]: inhibited to a lesser, but significant, extent | effect on HDAC8 [3]: no effect | inhibition of HDAC1 [4]: marked inhibition | IC50 ([5]; read-out: IC50 for the inhibition of human SLC5A8 (nicotinate uptake), human SLC5A8 in HRPE cells, [14C]nicotinate 15 μM, 15 min, means ± S.E.): 32 ± 9 µM | effect on HDAC5 [6]: no effect | change in HDAC activity [7]: no change in HDAC activity | effect on HDAC9 [8]: no effect | inhibition of HDAC6 [9]: inhibited to a lesser, but significant, extent | colony formation (cell viability) [10]: affected only minimally | inward currents in SLC5A8-expressing oocytes [11]: induced inward currents | current induced relative to current induced by pyruvate ([11]; 1 mM, pyruvate-induced current taken as 100%, four oocytes): approximately 50% | Hill coefficient for the activation of transport by Na+ [11, 15]: 1.4 ± 0.2 | K0.5 value for Na+ to activate the transport process [11, 15]: 32 ± 4 mM | transportable substrate or blocker of SLC5A8 ([11]; conclusion from Na+-dependent inward currents at 1 mM): transportable substrate | K0.5 (substrate concentration for half-maximal current) [11]: 495 ± 25 µM | apoptosis (FACS) [12, 16]: induced marked apoptosis | apoptosis (FACS), added effect after siRNA silencing ([12]; MCF7 cells with HDAC1 or HDAC3 silenced by siRNA, then 3-bromopyruvate 1 mM 48 h): did not have any added effect | apoptosis (FACS) after siRNA silencing ([12]; MCF7 cells with HDAC2 silenced by siRNA, 3-bromopyruvate 1 mM 48 h): did not cause apoptosis | apoptosis (FACS) [12, 17]: not affected

CC(=O)C(=O)O [pyruvate]
IC50 [1]: 40 ± 11 µM | inhibition of HDAC3 [1]: inhibited HDAC1 and HDAC3 preferentially | IC50 [4]: 30 ± 14 µM | inhibition of HDAC1 [4]: inhibited HDAC1 and HDAC3 preferentially | IC50 [5]: 652 ± 139 µM | inhibition at 1000 µM ([5]; HRPE, read-out: inhibition of nicotinate uptake): 55% | change in HDAC activity [7]: no change in HDAC activity | inhibition at 1000 µM [13]: 60% | inhibition at 1000 µM [14]: 75% | colony formation (cell viability) [10]: affected only minimally | inward currents in SLC5A8-expressing oocytes [11]: induced inward currents | substrate-induced current ([11]; 1 mM, four oocytes, NaCl buffer): 215 ± 45 nA | K0.5 (substrate concentration for half-maximal current) [11]: 312 ± 16 µM | apoptosis (FACS) [12, 16]: induced marked apoptosis | apoptosis (FACS) [12, 17]: not affected
